Test in all cases: Kinase panel study
What all share (format): biochemical
Holding throughout (details): read-out: Percentage of inhibition; for inhibition at 1 µM: 1000nM; for inhibition at 10 µM: 10000nM

The target of one assay is T1, CSNK1E (CK1 epsilon) (Homo sapiens, UniProt P49674).
T1 construct: purchased Thermo Fisher Scientific
In outline:
(§1)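 Percent inhibition of each kinase by the test compound, given at either 1 µM or 10 µM, came from a contracted panel run by ZLyte or Adapta protocol.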

For a further assay, the target named is T2, PAK7 (KIAA1264) (Homo sapiens, UniProt Q9P286).
T2 construct: purchased Thermo Fisher Scientific
T2 sequence (Q9P286 whole entry): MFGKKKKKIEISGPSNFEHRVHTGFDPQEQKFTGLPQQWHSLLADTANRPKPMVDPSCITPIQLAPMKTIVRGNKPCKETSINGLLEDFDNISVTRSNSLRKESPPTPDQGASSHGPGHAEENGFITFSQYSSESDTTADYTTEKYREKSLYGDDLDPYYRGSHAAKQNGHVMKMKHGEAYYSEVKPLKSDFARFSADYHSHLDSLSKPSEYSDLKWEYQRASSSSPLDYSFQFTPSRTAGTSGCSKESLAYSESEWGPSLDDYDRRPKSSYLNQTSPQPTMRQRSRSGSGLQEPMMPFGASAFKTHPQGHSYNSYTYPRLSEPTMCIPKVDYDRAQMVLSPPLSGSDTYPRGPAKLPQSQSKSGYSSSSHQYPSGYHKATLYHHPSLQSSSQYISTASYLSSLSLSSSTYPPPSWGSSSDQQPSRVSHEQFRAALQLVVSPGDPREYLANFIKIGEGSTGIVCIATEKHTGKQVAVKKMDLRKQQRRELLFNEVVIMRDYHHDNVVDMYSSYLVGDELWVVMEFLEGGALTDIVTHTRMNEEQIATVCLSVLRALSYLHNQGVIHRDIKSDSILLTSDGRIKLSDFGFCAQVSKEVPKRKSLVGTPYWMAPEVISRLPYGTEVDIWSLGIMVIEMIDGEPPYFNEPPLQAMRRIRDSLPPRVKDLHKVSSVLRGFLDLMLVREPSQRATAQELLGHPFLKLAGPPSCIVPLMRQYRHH
In outline:
as §1

Another assay deals with T3, JAK3 (Homo sapiens, UniProt P52333).
T3 construct: purchased Thermo Fisher Scientific
T3 sequence (P52333 1-1124): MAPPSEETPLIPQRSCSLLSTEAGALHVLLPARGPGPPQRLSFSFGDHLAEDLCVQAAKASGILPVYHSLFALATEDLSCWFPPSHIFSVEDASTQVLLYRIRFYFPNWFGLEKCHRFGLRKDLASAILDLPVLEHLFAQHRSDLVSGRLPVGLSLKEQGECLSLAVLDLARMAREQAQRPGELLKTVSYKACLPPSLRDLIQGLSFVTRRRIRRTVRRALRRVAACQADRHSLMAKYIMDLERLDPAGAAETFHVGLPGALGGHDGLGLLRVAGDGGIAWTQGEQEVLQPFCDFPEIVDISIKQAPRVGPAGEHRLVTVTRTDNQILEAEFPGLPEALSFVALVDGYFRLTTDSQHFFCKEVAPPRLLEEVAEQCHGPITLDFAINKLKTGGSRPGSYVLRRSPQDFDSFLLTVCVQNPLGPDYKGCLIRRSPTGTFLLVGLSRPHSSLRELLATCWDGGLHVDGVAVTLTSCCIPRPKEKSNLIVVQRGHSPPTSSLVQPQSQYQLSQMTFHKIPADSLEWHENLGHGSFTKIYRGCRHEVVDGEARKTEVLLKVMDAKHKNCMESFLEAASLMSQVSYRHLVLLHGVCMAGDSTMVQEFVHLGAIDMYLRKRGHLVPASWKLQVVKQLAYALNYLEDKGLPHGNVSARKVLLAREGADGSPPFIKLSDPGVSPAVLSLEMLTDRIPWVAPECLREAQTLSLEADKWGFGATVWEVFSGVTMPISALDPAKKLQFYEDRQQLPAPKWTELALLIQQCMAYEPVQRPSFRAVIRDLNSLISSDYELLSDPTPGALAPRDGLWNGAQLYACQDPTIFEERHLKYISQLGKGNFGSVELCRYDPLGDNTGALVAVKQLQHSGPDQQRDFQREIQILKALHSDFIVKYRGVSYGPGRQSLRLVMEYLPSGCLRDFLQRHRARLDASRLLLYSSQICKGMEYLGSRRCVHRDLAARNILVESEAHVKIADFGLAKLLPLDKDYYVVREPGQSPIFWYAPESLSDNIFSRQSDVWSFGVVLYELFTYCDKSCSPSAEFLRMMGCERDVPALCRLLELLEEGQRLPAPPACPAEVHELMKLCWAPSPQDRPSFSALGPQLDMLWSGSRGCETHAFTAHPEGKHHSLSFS
In outline:
as §1

The target of the next assay is T4, SGK (SGK1) (Homo sapiens, UniProt O00141).
T4 construct: purchased Thermo Fisher Scientific
T4 sequence (O00141 1-431): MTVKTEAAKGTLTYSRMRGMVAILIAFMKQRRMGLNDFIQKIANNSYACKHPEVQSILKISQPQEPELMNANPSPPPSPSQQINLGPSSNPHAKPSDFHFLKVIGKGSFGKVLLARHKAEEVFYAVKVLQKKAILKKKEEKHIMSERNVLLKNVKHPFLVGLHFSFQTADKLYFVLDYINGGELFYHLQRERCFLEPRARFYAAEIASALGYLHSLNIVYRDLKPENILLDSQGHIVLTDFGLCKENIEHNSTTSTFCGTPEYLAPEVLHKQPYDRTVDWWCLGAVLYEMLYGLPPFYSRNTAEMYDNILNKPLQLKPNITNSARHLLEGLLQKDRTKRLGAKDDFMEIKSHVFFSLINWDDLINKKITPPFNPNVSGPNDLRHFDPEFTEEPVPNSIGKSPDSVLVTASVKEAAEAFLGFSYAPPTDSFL
The procedure, abridged: as §1

In a further assay the target is T5, AMPK (A2/B2/G3) (Homo sapiens, UniProt P54646).
T5 construct: purchased Thermo Fisher Scientific
T5 sequence (P54646 whole entry): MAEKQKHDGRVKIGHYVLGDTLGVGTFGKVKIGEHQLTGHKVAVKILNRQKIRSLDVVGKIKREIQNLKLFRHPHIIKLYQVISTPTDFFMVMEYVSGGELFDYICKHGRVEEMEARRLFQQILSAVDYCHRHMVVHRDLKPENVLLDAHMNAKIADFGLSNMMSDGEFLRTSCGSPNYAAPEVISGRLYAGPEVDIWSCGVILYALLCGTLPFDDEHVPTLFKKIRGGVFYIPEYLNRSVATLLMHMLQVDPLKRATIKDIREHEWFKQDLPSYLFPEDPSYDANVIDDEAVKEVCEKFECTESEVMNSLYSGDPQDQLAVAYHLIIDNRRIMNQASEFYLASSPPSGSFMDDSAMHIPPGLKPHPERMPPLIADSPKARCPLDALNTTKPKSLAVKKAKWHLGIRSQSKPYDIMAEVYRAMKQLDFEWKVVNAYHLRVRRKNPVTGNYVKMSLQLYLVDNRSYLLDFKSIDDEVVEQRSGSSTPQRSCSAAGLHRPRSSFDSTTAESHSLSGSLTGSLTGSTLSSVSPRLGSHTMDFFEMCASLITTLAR
T5 sequence (O43741 whole entry partner): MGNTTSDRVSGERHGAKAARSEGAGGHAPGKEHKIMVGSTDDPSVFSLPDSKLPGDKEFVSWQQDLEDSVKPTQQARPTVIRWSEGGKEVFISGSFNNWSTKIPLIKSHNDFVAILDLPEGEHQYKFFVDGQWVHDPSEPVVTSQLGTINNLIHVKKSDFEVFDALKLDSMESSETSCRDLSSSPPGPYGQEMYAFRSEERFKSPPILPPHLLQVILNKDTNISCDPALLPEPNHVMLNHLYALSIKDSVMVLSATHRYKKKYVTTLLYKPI
T5 sequence (Q9UGI9 whole entry partner): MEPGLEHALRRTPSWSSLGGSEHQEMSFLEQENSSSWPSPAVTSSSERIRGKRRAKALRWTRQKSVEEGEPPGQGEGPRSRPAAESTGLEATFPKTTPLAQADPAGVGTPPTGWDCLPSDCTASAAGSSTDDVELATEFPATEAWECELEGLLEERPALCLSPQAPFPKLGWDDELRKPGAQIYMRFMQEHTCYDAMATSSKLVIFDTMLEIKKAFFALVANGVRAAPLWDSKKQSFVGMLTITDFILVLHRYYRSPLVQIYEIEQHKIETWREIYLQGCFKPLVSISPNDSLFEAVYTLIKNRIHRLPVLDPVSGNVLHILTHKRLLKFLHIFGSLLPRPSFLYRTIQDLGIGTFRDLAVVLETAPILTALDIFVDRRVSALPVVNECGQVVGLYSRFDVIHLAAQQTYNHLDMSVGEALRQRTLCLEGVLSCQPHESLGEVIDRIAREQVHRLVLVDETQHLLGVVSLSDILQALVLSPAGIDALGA
In outline: as §1

The target of a further assay is T6, RPS6KA5 (MSK1) (Homo sapiens, UniProt O75582).
T6 construct: purchased Thermo Fisher Scientific
T6 sequence (O75582 whole entry): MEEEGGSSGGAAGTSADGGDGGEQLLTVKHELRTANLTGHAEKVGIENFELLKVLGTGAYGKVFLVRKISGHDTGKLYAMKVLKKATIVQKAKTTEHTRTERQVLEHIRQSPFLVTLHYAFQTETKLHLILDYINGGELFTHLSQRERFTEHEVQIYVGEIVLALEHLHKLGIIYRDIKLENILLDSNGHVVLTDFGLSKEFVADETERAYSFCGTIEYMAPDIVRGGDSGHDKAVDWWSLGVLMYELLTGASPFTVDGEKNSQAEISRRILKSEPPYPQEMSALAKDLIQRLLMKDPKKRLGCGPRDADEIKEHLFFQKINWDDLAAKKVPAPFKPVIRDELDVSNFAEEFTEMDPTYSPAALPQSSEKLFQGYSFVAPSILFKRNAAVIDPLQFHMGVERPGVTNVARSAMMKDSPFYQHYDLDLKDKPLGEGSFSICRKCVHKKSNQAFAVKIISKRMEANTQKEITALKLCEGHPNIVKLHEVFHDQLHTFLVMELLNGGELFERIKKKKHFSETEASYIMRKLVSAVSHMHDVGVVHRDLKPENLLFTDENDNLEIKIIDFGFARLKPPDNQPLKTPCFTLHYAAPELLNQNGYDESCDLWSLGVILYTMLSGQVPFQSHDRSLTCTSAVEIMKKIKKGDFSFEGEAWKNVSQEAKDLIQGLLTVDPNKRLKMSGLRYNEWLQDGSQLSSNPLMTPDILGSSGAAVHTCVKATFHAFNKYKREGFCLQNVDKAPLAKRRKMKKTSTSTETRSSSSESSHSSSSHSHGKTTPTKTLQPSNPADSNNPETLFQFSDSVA
The procedure, abridged: as §1

In general, inhibition refers to the relative decrease from the control value, in per cent.

T1 sequence (P49674 whole entry): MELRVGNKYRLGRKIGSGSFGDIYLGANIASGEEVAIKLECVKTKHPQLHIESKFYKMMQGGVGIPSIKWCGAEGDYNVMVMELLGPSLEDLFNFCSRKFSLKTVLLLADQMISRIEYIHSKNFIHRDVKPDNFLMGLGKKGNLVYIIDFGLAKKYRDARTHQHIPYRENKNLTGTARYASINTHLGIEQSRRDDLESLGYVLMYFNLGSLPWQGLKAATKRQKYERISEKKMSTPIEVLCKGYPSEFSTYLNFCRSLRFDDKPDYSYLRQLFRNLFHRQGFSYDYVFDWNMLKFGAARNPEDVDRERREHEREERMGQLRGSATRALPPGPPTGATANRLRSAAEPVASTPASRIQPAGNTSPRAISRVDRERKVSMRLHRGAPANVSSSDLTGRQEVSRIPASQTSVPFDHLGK

Consider `COc1ccc2c(c1OC)c(=O)n1c3ccc(O)cc3c3ccnc2c31` [MW01, 5-Hydroxy-10,11-dimethoxy-9H-benzo[c]indolo[3,2,1-ij][1,5]naphthyridin-9-one], for which the inhibition at 1 µM is 6% on CSNK1E (CK1 epsilon); 2% on PAK7 (KIAA1264); 9% on JAK3; -4% at SGK (SGK1); 8% on AMPK (A2/B2/G3); 5% on RPS6KA5 (MSK1). Moreover, the inhibition at 10 µM on CSNK1E (CK1 epsilon) is 32%; at PAK7 (KIAA1264), 11%; on JAK3 it was 20%; at SGK (SGK1) it was 15%; on AMPK (A2/B2/G3) it was 18%; at RPS6KA5 (MSK1), 25%.
`COc1ccc2cc3c(N)nn(C(=O)c4cccc(N(C)C)c4)c3nc2c1` [MW05, (3-Amino-7-methoxypyrazolo[3,4-b]quinolin-1-yl)-[3-(dimethylamino)phenyl]methanone]: the inhibition at 1 µM at CSNK1E (CK1 epsilon) was 2%; at PAK7 (KIAA1264), 15%; on JAK3, 4%; at SGK (SGK1), -2%; on AMPK (A2/B2/G3), 4%; at RPS6KA5 (MSK1), 2%. Also, the inhibition at 10 µM was 0% on CSNK1E (CK1 epsilon); 13% on PAK7 (KIAA1264); -6% on JAK3; -12% on SGK (SGK1); -4% at AMPK (A2/B2/G3); -14% on RPS6KA5 (MSK1).

Values taken from EP4467141A1, “PYRAZOLO-QUINOLINES AS SELECTIVE INHIBITORS OF GENOTOXIC STRESS-INDUCED IKK/NF- KB PATHWAYS FOR CANCER THERAPY” (Max-Delbrück-Centrum für Molekulare Medizin in der …, priority 2023, dated 2024).
